Patent publication US20230211004A1, “TETANUS TOXOID AND CRM-BASED PEPTIDES AND METHODS OF USE” (UNIVERSITY OF GEORGIA RESEARCH FOUNDATION, INC., priority 2019, published 2023)
“Also recorded” adds a separate entry of the source.

Legend:
[1] = tested on: MHCII molecules (HLA-DR, HLA-DP, HLA-DQ) of Raji B cells; assay type: binding, human
CD4+ T cells = assay type: cell-based, human
[2] = tested on: IFN-γ production by CD4+ T cell enriched donor PBMCs; assay type: cell-based, human

Sequence | Observed in Isotypes [1] | CD4+ T cell proliferation compared to basal growth rate (CD4+ T cells) | Donor 2 CFSE (CD4+ T cells) | Donor 3 CFSE (CD4+ T cells) | Donor 4 CFSE (CD4+ T cells) | donors that gave positive / significant T cell response (CD4+ T cells) | number of donors with positive T cell proliferative response (CD4+ T cells) | Donor 2 IFN-γ [2] | Donor 3 IFN-γ [2] | Donor 4 IGN-γ [2] | IFN-γ production [2] | number of donors with significant levels of IFN-γ [2] | T cell response against previously published TT epitopes (CD4+ T cells) | Donor 1 CFSE (CD4+ T cells) | Donor 1 IFN-γ [2]
TPLPIAGVLLPTIPGK (CRM-derived peptide) [CRM425-440] | pulled down in the -DQ IP; also recorded: DR, DQ | increased proliferation | *** (key: * p < 0.05; ** p < 0.005; *** p < 0.0005) | ** (key: * p < 0.05; ** p < 0.005; *** p < 0.0005) | *** (key: * p < 0.05; ** p < 0.005; *** p < 0.0005) | Donors 2,3, and 4 | three | ** (key: * p < 0.05; ** p < 0.005; *** p < 0.0005) | ** (key: * p < 0.05; ** p < 0.005; *** p < 0.0005) | *** (key: * p < 0.05; ** p < 0.005; *** p < 0.0005) | significant production of IFN-γ | at least three | – | – | –
KFIIKRYTPNNEIDSF (TT-derived peptide) [Peptide P32, reference compound] | – | – | *** (key: * p < 0.05; ** p < 0.005; *** p < 0.0005) | ** (key: * p < 0.05; ** p < 0.005; *** p < 0.0005) | *** (key: * p < 0.05; ** p < 0.005; *** p < 0.0005) | – | – | ** (key: * p < 0.05; ** p < 0.005; *** p < 0.0005) | ** (key: * p < 0.05; ** p < 0.005; *** p < 0.0005) | * (key: * p < 0.05; ** p < 0.005; *** p < 0.0005) | – | – | no significant response | – | –
LFNRIKNNVAGEAL (TT-derived peptide) [TT94-107] | – | increased proliferation | *** (key: * p < 0.05; ** p < 0.005; *** p < 0.0005) | *** (key: * p < 0.05; ** p < 0.005; *** p < 0.0005) | ** (key: * p < 0.05; ** p < 0.005; *** p < 0.0005) | – | three | ** (key: * p < 0.05; ** p < 0.005; *** p < 0.0005) | ** (key: * p < 0.05; ** p < 0.005; *** p < 0.0005) | * (key: * p < 0.05; ** p < 0.005; *** p < 0.0005) | significant production of IFN-γ | at least three | – | – | –
GYVDSIQKGIQKPK (CRM-derived peptide) [CRM26-39] | – | increased proliferation | – | * (key: * p < 0.05; ** p < 0.005; *** p < 0.0005) | *** (key: * p < 0.05; ** p < 0.005; *** p < 0.0005) | – | three | ** (key: * p < 0.05; ** p < 0.005; *** p < 0.0005) | * (key: * p < 0.05; ** p < 0.005; *** p < 0.0005) | *** (key: * p < 0.05; ** p < 0.005; *** p < 0.0005) | significant levels of IFN-γ response; also recorded: significant production of IFN-γ | at least three | – | * (key: * p < 0.05; ** p < 0.005; *** p < 0.0005) | ** (key: * p < 0.05; ** p < 0.005; *** p < 0.0005)
NILMQYIKANSK (TT-derived peptide) [TT826-837] | – | no significant response | – | – | – | – | one | – | * (key: * p < 0.05; ** p < 0.005; *** p < 0.0005) | – | – | – | – | – | –
CKALNPKEIE (TT-derived peptide) [TT1093-1102] | pulled down in the -DQ IP; also recorded: DR, DQ | not significant compared to basal growth rate | – | ** (key: * p < 0.05; ** p < 0.005; *** p < 0.0005) | *** (key: * p < 0.05; ** p < 0.005; *** p < 0.0005) | Donors 3 and 4 | – | * (key: * p < 0.05; ** p < 0.005; *** p < 0.0005) | ** (key: * p < 0.05; ** p < 0.005; *** p < 0.0005) | * (key: * p < 0.05; ** p < 0.005; *** p < 0.0005) | significant levels of IFN-γ response; also recorded: significant production of IFN-γ | at least three | – | – | * (key: * p < 0.05; ** p < 0.005; *** p < 0.0005)
KTTAALSILPGIGS (CRM-derived peptide) [CRM299-312] | pulled down in the HLA-DP specific immunoprecipitation; also recorded: pulled down in the -DQ IP; also recorded: identified through the -DR IP; also recorded: DR, DP, DQ | increased proliferation | *** (key: * p < 0.05; ** p < 0.005; *** p < 0.0005) | ** (key: * p < 0.05; ** p < 0.005; *** p < 0.0005) | *** (key: * p < 0.05; ** p < 0.005; *** p < 0.0005) | – | four | ** (key: * p < 0.05; ** p < 0.005; *** p < 0.0005) | * (key: * p < 0.05; ** p < 0.005; *** p < 0.0005) | ** (key: * p < 0.05; ** p < 0.005; *** p < 0.0005) | significant levels of IFN-γ response; also recorded: significant production of IFN-γ | at least three | – | *** (key: * p < 0.05; ** p < 0.005; *** p < 0.0005) | * (key: * p < 0.05; ** p < 0.005; *** p < 0.0005)
QYIKANSKFIGITEL (TT-derived peptide) [Peptide P2, reference compound] | – | did not show increased proliferation; also recorded: did not show significant proliferation | – | * (key: * p < 0.05; ** p < 0.005; *** p < 0.0005) | *** (key: * p < 0.05; ** p < 0.005; *** p < 0.0005) | – | – | – | – | * (key: * p < 0.05; ** p < 0.005; *** p < 0.0005) | – | – | no significant response | – | –
NFIGALET (TT-derived peptide) [TT660-667] | – | – | – | ** (key: * p < 0.05; ** p < 0.005; *** p < 0.0005) | *** (key: * p < 0.05; ** p < 0.005; *** p < 0.0005) | Donors 3 and 4 | – | – | * (key: * p < 0.05; ** p < 0.005; *** p < 0.0005) | * (key: * p < 0.05; ** p < 0.005; *** p < 0.0005) | significant levels of IFN-γ response | at least three | – | – | * (key: * p < 0.05; ** p < 0.005; *** p < 0.0005)
GYNAPGIPLYKK (TT-derived peptide) [TT1228-1239] | – | – | – | ** (key: * p < 0.05; ** p < 0.005; *** p < 0.0005) | *** (key: * p < 0.05; ** p < 0.005; *** p < 0.0005) | Donors 3 and 4 | – | – | ** (key: * p < 0.05; ** p < 0.005; *** p < 0.0005) | ** (key: * p < 0.05; ** p < 0.005; *** p < 0.0005) | – | – | – | – | –
LYNGLKFIIKR (TT-derived peptide) [TT1169-1179] | – | – | *** (key: * p < 0.05; ** p < 0.005; *** p < 0.0005) | * (key: * p < 0.05; ** p < 0.005; *** p < 0.0005) | – | – | three | * (key: * p < 0.05; ** p < 0.005; *** p < 0.0005) | * (key: * p < 0.05; ** p < 0.005; *** p < 0.0005) | * (key: * p < 0.05; ** p < 0.005; *** p < 0.0005) | significant production of IFN-γ | at least three | – | * (key: * p < 0.05; ** p < 0.005; *** p < 0.0005) | –
DRILRVGYNAPGIPL (TT-derived peptide) [TT1222-1236] | – | – | *** (key: * p < 0.05; ** p < 0.005; *** p < 0.0005) | – | * (key: * p < 0.05; ** p < 0.005; *** p < 0.0005) | – | three | *** (key: * p < 0.05; ** p < 0.005; *** p < 0.0005) | – | – | significant production of IFN-γ | – | – | * (key: * p < 0.05; ** p < 0.005; *** p < 0.0005) | –
GLTKVLALKVD (CRM-derived peptide) [CRM87-97] | – | not significant compared to basal growth rate | – | ** (key: * p < 0.05; ** p < 0.005; *** p < 0.0005) | *** (key: * p < 0.05; ** p < 0.005; *** p < 0.0005) | Donors 3 and 4 | – | ** (key: * p < 0.05; ** p < 0.005; *** p < 0.0005) | *** (key: * p < 0.05; ** p < 0.005; *** p < 0.0005) | ** (key: * p < 0.05; ** p < 0.005; *** p < 0.0005) | significant levels of IFN-γ response; also recorded: significant production of IFN-γ | at least three | – | – | * (key: * p < 0.05; ** p < 0.005; *** p < 0.0005)
